According to patent publication US8802597B2, “Herbicidal pyrimidines” (E I du Pont de Nemours and Company, priority 2003, dated 2014):
Like-named read-outs stand apart in the source and are kept apart here.

Assays:
Type in all cases: in vivo
[1] = test system: blackgrass (Alopecurus myosuroides); experiment: Test B postemergence
Outline: (§1)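 Scores reflect visual comparison with untreated controls, where 0 means no effect and 100 complete control. Plants stayed 13 to 15 days in the greenhouse after pre- or postemergence treatment with compounds carried in a non-phytotoxic solvent and surfactant.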

wild oat (Avena fatua) = experiment: Test B postemergence
Outline: as §1

[2] = test system: Surinam grass (Brachiaria decumbens); experiment: Test B pre/postemergence; details: Urochloa decumbens; for pest or weed control at 125 g/ha: 125 g ai/ha; for pest or weed control at 500 g/ha: 500 g ai/ha
Outline: as §1

[3] = test system: crabgrass (Digitaria sanguinalis); experiment: Test B pre/postemergence; details: for pest or weed control at 500 g/ha: 500 g ai/ha
Outline: as §1

[4] = test system: morningglory (Ipomoea coccinea); experiment: Test B pre/postemergence; details: for pest or weed control at 500 g/ha: 500 g ai/ha
Outline: as §1

[5] = test system: cocklebur (Xanthium strumarium); experiment: Test B pre/postemergence; details: Xanthium strumarium; for pest or weed control at 125 g/ha: 125 g ai/ha; for pest or weed control at 500 g/ha: 500 g ai/ha
Outline: as §1

corn (Zea mays) = experiment: Test B pre/postemergence
Outline: as §1

[6] = test system: wheat (Triticum aestivum); experiment: Test B pre/postemergence; details: for plant injury at 500 g/ha: 500 g ai/ha
Outline: as §1

[7] = test system: barnyardgrass (Echinochloa crus-galli); experiment: Test B pre/postemergence; details: for pest or weed control at 500 g/ha: 500 g ai/ha
Outline: as §1

[8] = test system: giant foxtail (Setaria faberii); experiment: Test B pre/postemergence; details: for pest or weed control at 500 g/ha: Setaria faberi, 500 g ai/ha
Outline: as §1

[9] = test system: velvetleaf (Abutilon theophrasti); experiment: Test B pre/postemergence; details: Abutilon theophrasti; for pest or weed control at 125 g/ha: 125 g ai/ha; for pest or weed control at 500 g/ha: 500 g ai/ha
Outline: as §1

[10] = test system: lambsquarters (Chenopodium album); experiment: Test B pre/postemergence; details: Chenopodium album; for pest or weed control at 125 g/ha: 125 g ai/ha; for pest or weed control at 500 g/ha: 500 g ai/ha
Outline: as §1

[11] = test system: pigweed (Amaranthus retroflexus); experiment: Test B pre/postemergence; details: Amaranthus retroflexus; for pest or weed control at 125 g/ha: 125 g ai/ha; for pest or weed control at 500 g/ha: 500 g ai/ha
Outline: as §1

[12] = test system: duck salad (Heteranthera limosa); experiment: Test B flooded paddy test; details: Heteranthera limosa, Flood, 1000 g ai/ha; scale 0 to 100; read-out: Plant response rating, Ducksalad
Outline: (§2)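 Visual injury scoring (0 = no effect, 100 = complete control) versus controls made 13 to 15 days after treatment in the greenhouse. Test species were grown in flooded paddy to the 2-leaf stage: rice, barnyardgrass, umbrella sedge, duck salad.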

rice (Oryza sativa) = experiment: Test B flooded paddy test; details: Oryza sativa, Flood, 1000 g ai/ha; scale 0 to 100; read-out: Plant response rating, Rice
Outline: as §2

[13] = test system: barnyardgrass (Echinochloa crus-galli); experiment: Test B flooded paddy test; details: Echinochloa crus-galli, Flood, 1000 g ai/ha; scale 0 (no effect) to 100 (complete control); read-out: Plant response rating, Barnyardgrass
Outline: as §2

[14] = test system: umbrella sedge (Cyperus difformis); experiment: Test B flooded paddy test; details: Cyperus difformis, Flood, 1000 g ai/ha; scale 0 to 100; read-out: Plant response rating, Sedge, Umbrella
Outline: as §2

[15] = 125 g ai/ha, scale 0 to 100 (0 no effect, 100 complete control)
[16] = Postemergence, 125 g ai/ha, scale 0 to 100 (0 no effect, 100 complete control)
[17] = Preemergence, 125 g ai/ha, scale 0 to 100 (0 no effect, 100 complete control)

`Nc1nc(C2CC2)nc(C(=O)O)c1Br` [Compound 8] was tested, and the “Blackgrass plant response rating” value [1, 15] was 0, the pest or weed control at 500 g/ha ([1]; Alopecurus myosuroides, post-emergence, 500 g ai/ha, scale 0 to 100, read-out: Plant response rating, Blackgrass) was 0% and the “Oat, Wild plant response rating” value (wild oat (Avena fatua); [15]) was 0. It also gave a pest or weed control at 500 g/ha (wild oat (Avena fatua); Avena fatua, post-emergence, 500 g ai/ha, scale 0 to 100, read-out: Plant response rating, Oat, Wild) of 0%, a pest or weed control at 125 g/ha ([2]; post-emergence, Postemergence, scale 0 to 100 (0 no effect, 100 complete control), read-out: Surinam Grass plant response rating) of 80% and a pest or weed control at 500 g/ha ([2]; post-emergence, Postemergence, scale 0 to 100, read-out: Plant response rating, Surinam Grass) of 90%. For the same molecule, the pest or weed control at 125 g/ha ([2]; pre-emergence, Preemergence, scale 0 to 100 (0 no effect, 100 complete control), read-out: Plant response rating, Surinam Grass) was 60%, the pest or weed control at 500 g/ha ([2]; pre-emergence, Preemergence, scale 0 to 100 (0 no effect, 100 complete control), read-out: Surinam Grass plant response rating) was 90% and the pest or weed control at 500 g/ha ([3]; Digitaria sanguinalis, post-emergence, Postemergence, scale 0 to 100, read-out: Plant response rating, Crabgrass) was 90%. For the same molecule, the pest or weed control at 125 g/ha ([3]; Digitaria sanguinalis, pre-emergence, Preemergence, 125 g ai/ha, scale 0 to 100 (0 no effect, 100 complete control), read-out: Plant response rating, Crabgrass) was 80%, the pest or weed control at 500 g/ha ([3]; Digitaria sanguinalis, pre-emergence, Preemergence, scale 0 to 100 (0 no effect, 100 complete control), read-out: Crabgrass plant response rating) was 90% and the “Crabgrass plant response rating” value [3, 16] was 80. For the same molecule, the pest or weed control at 125 g/ha ([4]; Ipomoea, post-emergence, Postemergence, 125 g ai/ha, scale 0 to 100 (0 no effect, 100 complete control), read-out: Morningglory plant response rating) was 100%, the pest or weed control at 500 g/ha ([4]; Ipomoea, post-emergence, Postemergence, scale 0 to 100, read-out: Plant response rating, Morningglory) was 100% and the pest or weed control at 500 g/ha ([4]; Ipomoea, pre-emergence, Preemergence, scale 0 to 100 (0 no effect, 100 complete control), read-out: Morningglory plant response rating) was 100%. The “Plant response rating, Morningglory” value [4, 17] was 100, the pest or weed control at 125 g/ha ([5]; post-emergence, Postemergence, scale 0 to 100 (0 no effect, 100 complete control), read-out: Cocklebur plant response rating) was 100% and the pest or weed control at 500 g/ha ([5]; post-emergence, Postemergence, scale 0 to 100, read-out: Plant response rating, Cocklebur) was 100%. The pest or weed control at 125 g/ha ([5]; pre-emergence, Preemergence, scale 0 to 100 (0 no effect, 100 complete control), read-out: Plant response rating, Cocklebur) was 90%, the pest or weed control at 500 g/ha ([5]; pre-emergence, Preemergence, scale 0 to 100 (0 no effect, 100 complete control), read-out: Cocklebur plant response rating) was 100% and the “Corn plant response rating” value (corn (Zea mays); [16]) was 70. The “Plant response rating, Corn” value (corn (Zea mays); [17]) was 90, the Corn plant response rating (crop injury, 0 = no effect, 100 = complete kill) at 500 g/ha (corn (Zea mays); Zea mays, post-emergence, Postemergence, 500 g ai/ha, scale 0 to 100) was 90% and the plant injury at 500 g/ha (corn (Zea mays); Zea mays, pre-emergence, Preemergence, 500 g ai/ha, scale 0 to 100 (0 no effect, 100 complete control), read-out: Corn plant response rating) was 90%. For the same molecule, the “Wheat plant response rating” value [6, 16] was 0, the plant injury at 500 g/ha ([6]; Triticum aestivum, post-emergence, Postemergence, scale 0 to 100, read-out: Plant response rating, Wheat) was 0% and the plant injury at 125 g/ha ([6]; Triticum aestivum, pre-emergence, Preemergence, 125 g ai/ha, scale 0 to 100 (0 no effect, 100 complete control), read-out: Plant response rating, Wheat) was 60%. It also gave a plant injury at 500 g/ha ([6]; Triticum aestivum, pre-emergence, Preemergence, scale 0 to 100 (0 no effect, 100 complete control), read-out: Wheat plant response rating) of 80%, a pest or weed control at 125 g/ha ([7]; Echinochloa crus-galli, post-emergence, Postemergence, 125 g ai/ha, scale 0 to 100 (0 no effect, 100 complete control), read-out: Barnyardgrass plant response rating) of 90% and a pest or weed control at 500 g/ha ([7]; Echinochloa crus-galli, post-emergence, Postemergence, scale 0 to 100, read-out: Plant response rating, Barnyardgrass) of 90%. For the same molecule, the pest or weed control at 500 g/ha ([7]; Echinochloa crus-galli, pre-emergence, Preemergence, scale 0 to 100 (0 no effect, 100 complete control), read-out: Barnyardgrass plant response rating) was 90%, the “Plant response rating, Barnyardgrass” value [7, 17] was 70 and the “Foxtail, Giant plant response rating” value [8, 16] was 80. For the same molecule, the “Plant response rating, Foxtail, Giant” value [8, 17] was 50, the pest or weed control at 500 g/ha ([8]; post-emergence, Postemergence, scale 0 to 100, read-out: Plant response rating, Foxtail, Giant) was 90% and the pest or weed control at 500 g/ha ([8]; pre-emergence, Preemergence, scale 0 to 100 (0 no effect, 100 complete control), read-out: Foxtail, Giant plant response rating) was 90%. The pest or weed control at 125 g/ha ([9]; post-emergence, Postemergence, scale 0 to 100 (0 no effect, 100 complete control), read-out: Velvetleaf plant response rating) was 80%, the pest or weed control at 500 g/ha ([9]; post-emergence, Postemergence, scale 0 to 100, read-out: Plant response rating, Velvetleaf) was 100% and the pest or weed control at 125 g/ha ([9]; pre-emergence, Preemergence, scale 0 to 100 (0 no effect, 100 complete control), read-out: Plant response rating, Velvetleaf) was 80%. For the same molecule, the pest or weed control at 500 g/ha ([9]; pre-emergence, Preemergence, scale 0 to 100 (0 no effect, 100 complete control), read-out: Velvetleaf plant response rating) was 100%, the pest or weed control at 125 g/ha ([10]; post-emergence, Postemergence, scale 0 to 100 (0 no effect, 100 complete control), read-out: Lambsquarters plant response rating) was 100% and the pest or weed control at 500 g/ha ([10]; post-emergence, Postemergence, scale 0 to 100, read-out: Plant response rating, Lambsquarters) was 100%. For the same molecule, the pest or weed control at 125 g/ha ([10]; pre-emergence, Preemergence, scale 0 to 100 (0 no effect, 100 complete control), read-out: Plant response rating, Lambsquarters) was 90%, the pest or weed control at 500 g/ha ([10]; pre-emergence, Preemergence, scale 0 to 100 (0 no effect, 100 complete control), read-out: Lambsquarters plant response rating) was 100% and the pest or weed control at 125 g/ha ([11]; post-emergence, Postemergence, scale 0 to 100 (0 no effect, 100 complete control), read-out: Pigweed plant response rating) was 100%. It also gave a pest or weed control at 500 g/ha ([11]; post-emergence, Postemergence, scale 0 to 100, read-out: Plant response rating, Pigweed) of 100%, a pest or weed control at 125 g/ha ([11]; pre-emergence, Preemergence, scale 0 to 100 (0 no effect, 100 complete control), read-out: Plant response rating, Pigweed) of 100% and a pest or weed control at 500 g/ha ([11]; pre-emergence, Preemergence, scale 0 to 100 (0 no effect, 100 complete control), read-out: Pigweed plant response rating) of 100%. The pest or weed control at 1000 g/ha [12] was 90%, the plant injury at 1000 g/ha (rice (Oryza sativa)) was 60% and the pest or weed control at 1000 g/ha [13] was 70%. The pest or weed control at 1000 g/ha [14] was 40%.
